Results taken from patent US20080213743A1, “Method for adjusting sedimentation rates” (priority 2007, published 2008).

System: bone marrow aspirate
Experiment: Centrifugal fractionation of bone marrow aspirate with the whole-blood platelet rich plasma protocol; analysis of ten milliliter concentrate sample
Assay type: cell-based
Conditions: 60 mls bone marrow aspirate collected into heparin, 8-10 mls of ACD added or heparin alone, two centrifugations
Procedure: In one specific example of the invention, 60 mls of bone marrow aspirate is collected into a bag or syringe having heparin as the anticoagulant. A bag is preferred to be able to inspect the collected marrow. Then, 8-10 mls of ACD are added to the collected aspirate to adjust the sedimentation rate of the components, particularly the red blood cells. The aspirate mixture is then placed in the first chamber of a two-chamber processing unit and subjected to centrifugation according to a known protocol designed to fractionate whole blood for the purpose of making platelet rich plasma as described in U.S. Pat. No. 6,398,972. The supernatant is then decanted to the second chamber and again subjected to centrifugation according to the said process designed to separate platelets to make platelet rich plasma. Supernatant from the second centrifugation is withdrawn to leave a ten milliliter concentrate sample remaining in the chamber. […] In contrast, when same process is followed with heparin alone, the sample is 3% Hct with a TNC of 32.4×10^3/μl.

heparin
Hct of concentrate sample: 3 % Hct
total nucleated cell count (TNC) of concentrate sample: 32400 µL⁻¹
